BindingDB's records for doi:10.1021/jm960594+ (Nippon Zoki Pharmaceutical, 1997)
pIC50: −log10 of the molar value.

target: T1, Aldo-keto reductase family 1 member A1 (Rattus norvegicus, UniProt P51635); experiment: In vitro inhibitory activity against rat kidney aldehyde reductase(ALR).
T1 sequence (P51635 whole entry): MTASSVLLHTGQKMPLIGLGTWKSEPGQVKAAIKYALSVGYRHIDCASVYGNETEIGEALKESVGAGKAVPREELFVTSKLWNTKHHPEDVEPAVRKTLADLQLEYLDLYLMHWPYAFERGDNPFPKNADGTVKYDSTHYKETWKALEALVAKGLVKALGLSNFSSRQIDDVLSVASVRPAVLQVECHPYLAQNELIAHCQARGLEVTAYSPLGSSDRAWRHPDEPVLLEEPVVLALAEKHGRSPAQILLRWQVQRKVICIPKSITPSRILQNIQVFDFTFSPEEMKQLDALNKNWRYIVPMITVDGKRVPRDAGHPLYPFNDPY

SMILES | pIC50
O=C(O)Cn1c(=O)cc(O)n(Cc2cccc([N+](=O)[O-])c2)c1=O [[3-(3-Nitro-benzyl)-2,4,6-trioxo-tetrahydro-pyrimidin-1-yl]-acetic acid] | < 4.00
O=C(O)Cn1c(O)cn(Cc2cccc([N+](=O)[O-])c2)c1=O [[3-(3-Nitro-benzyl)-2,5-dioxo-imidazolidin-1-yl]-acetic acid] | < 4.00
O=C(O)Cn1cc(O)n(Cc2cccc([N+](=O)[O-])c2)c1=O [[3-(3-Nitro-benzyl)-2,4-dioxo-imidazolidin-1-yl]-acetic acid] | < 4.00
O=C(O)Cn1c(O)c(O)n(Cc2cccc([N+](=O)[O-])c2)c1=O | < 4.00
